According to patent US20160251341A1, “SUBSTITUTED TRIAZOLE COMPOUNDS AS SERINE PROTEASE INHIBITORS” (Verseon Corporation, priority 2015, published 2016):
Where a name gives a salt, the structure may show the parent alone.

Molecular target: T1, Human thrombin (Homo sapiens, UniProt P00734)
T1 construct: purchased Haematologic Technologies Inc
Assay: Thrombin protease inhibition assay (chromogenic substrate S-2238)
Type: biochemical
Conditions: 3 nM human thrombin, 125 μM S-2238, 10 min pre-incubation, RT
Method: The thrombin activity reported herein (e.g., Table A) was obtained as follows. Human thrombin was obtained from Haematologic Technologies Inc. The chromogenic substrate S-2238 was obtained from DiaPharma. Thrombin was assayed in buffer containing 0.05 M Tris (pH 7.4), 0.015 M NaCl and 0.01% PEG-8000. The final concentration of enzyme used was 3 nM thrombin. The final concentration of substrate used was 125 μM S-2238 for thrombin. All assays were performed in 96-well microtiter plates at room temperature (RT). The enzyme and inhibitor were pre-incubated for 10 minutes then substrate was added and read at 405 nm in a SpectraMax Plus Spectrophotometer (Molecular Devices). Inhibitor IC50 values were determined by adding test compound as ten point, three-fold serial dilutions in buffer solution, as known in the art. The plate was read at 10 minutes after substrate addition. The IC50 was calculated by plotting the percent (%) inhibition against compound concentration and fitting the data to a constrained four parameter sigmoidal curve, as known in the art.

Structure (SMILES) | IC50 [nM]
COc1ccc(C(=O)n2nc(C3CCOC3)nc2NCc2ccc(Cl)s2)c(OC)c1 (stereo not shown) [Entry 38, N-[(5-chlorothiophen-2-yl)methyl]-1-(2,4-dimethoxybenzoyl)-3-(oxolan-3-yl)-1H-1,2,4-triazol-5-amine] | ≤ 100
COc1ccccc1C(=O)n1nc(C2CCN(C(=O)N3CCCC3)CC2)nc1NCc1ccc(Cl)s1 [Entry 48, N-[(5-chlorothiophen-2-yl)methyl]-1-(2-methoxybenzoyl)-3-[1-(pyrrolidine-1-carbonyl)piperidin-4-yl]-1H-1,2,4-triazol-5-amine] | ≤ 100
COc1ccccc1C(=O)n1nc(C2CCOCC2)nc1NCc1ccc(Cl)s1 [Entry 40, N-[(5-chlorothiophen-2-yl)methyl]-1-(2-methoxybenzoyl)-3-(oxan-4-yl)-1H-1,2,4-triazol-5-amine] | ≤ 100
COc1ccccc1C(=O)n1nc(C2CCN(S(C)(=O)=O)CC2)nc1NCc1ccc(Cl)s1 [Entry 55, N-[(5-chlorothiophen-2-yl)methyl]-3-(1-methanesulfonylpiperidin-4-yl)-1-(2-methoxybenzoyl)-1H-1,2,4-triazol-5-amine] | ≤ 100
O=C(c1cccc2c1OCCO2)n1nc(C2CNC2)nc1NCc1ccc(Cl)s1 [Entry 21, 3-(azetidin-3-yl)-N-[(5-chlorothiophen-2-yl)methyl]-1-(2,3-dihydro-1,4-benzodioxine-5-carbonyl)-1H-1,2,4-triazol-5-amine; trifluoroacetic acid] | ≤ 100
Clc1ccc(CNc2nc(C3CCOCC3)n[nH]2)s1 [Entry 58, N-[(5-chlorothiophen-2-yl)methyl]-3-(oxan-4-yl)-1H-1,2,4-triazol-5-amine] | ≥ 100000
O=C(c1cccc2c1OCCO2)n1nc(C2CCNCC2)nc1NCc1ccc(Cl)s1 [Entry 35, N-[(5-chlorothiophen-2-yl)methyl]-1-(2,3-dihydro-1,4-benzodioxine-5-carbonyl)-3-(piperidin-4-yl)-1H-1,2,4-triazol-5-amine hydrochloride] | ≤ 100
O=C(c1ccccc1)n1nc(C2CNC2)nc1NCc1ccc(Cl)s1 [Entry 20, 3-(azetidin-3-yl)-1-benzoyl-N-[(5-chlorothiophen-2-yl)methyl]-1H-1,2,4-triazol-5-amine] | ≥ 100000
COc1ccccc1C(=O)n1nc(C2CCCO2)nc1NCc1ccc(Cl)s1 (stereo not shown) [Entry 41, N-[(5-chlorothiophen-2-yl)methyl]-1-(2-methoxybenzoyl)-3-(oxolan-2-yl)-1H-1,2,4-triazol-5-amine] | ≤ 100
COc1ccccc1C(=O)n1nc(C2CCN(C(=O)OC(C)(C)C)CC2)nc1NCc1ccc(Cl)s1 [Entry 74, tert-butyl 4-(5-[(5-chlorothiophen-2-yl)methyl]amino-1-(2-methoxybenzoyl)-1H-1,2,4-triazol-3-yl)piperidine-1-carboxylate] | ≤ 100
Cc1ccccc1C(=O)n1nc(C2CCOCC2)nc1NCc1ccc(Cl)s1 [Entry 50, N-[(5-chlorothiophen-2-yl)methyl]-1-(2-methylbenzoyl)-3-(oxan-4-yl)-1H-1,2,4-triazol-5-amine] | ≤ 100
COc1ccccc1C(=O)n1nc(C2CN(S(=O)(=O)c3ccccc3)C2)nc1NCc1ccc(Cl)s1 [Entry 27, 3-[1-(benzenesulfonyl)azetidin-3-yl]-N-[(5-chlorothiophen-2-yl)methyl]-1-(2-methoxybenzoyl)-1H-1,2,4-triazol-5-amine] | ≤ 100
COc1ccccc1C(=O)n1nc(C2CCOCC2)nc1NCc1ccccc1 [Entry 65, N-benzyl-1-(2-methoxybenzoyl)-3-(oxan-4-yl)-1H-1,2,4-triazol-5-amine] | 1000 to 10000
O=C(C1CCCC1)n1nc(C2CNC2)nc1NCc1ccc(Cl)s1 [Entry 23, 3-(azetidin-3-yl)-N-[(5-chlorothiophen-2-yl)methyl]-1-cyclopentanecarbonyl-1H-1,2,4-triazol-5-amine] | ≥ 100000
COc1ccc(C(=O)n2nc(C3CCOCC3)nc2NCc2ccc(Cl)s2)c(OC)c1 [Entry 36, N-[(5-chlorothiophen-2-yl)methyl]-1-(2,4-dimethoxybenzoyl)-3-(oxan-4-yl)-1H-1,2,4-triazol-5-amine] | ≤ 100
COc1ccccc1C(=O)n1nc(C2CN(S(=O)(=O)C(C)C)C2)nc1NCc1ccc(Cl)s1 [Entry 46, N-[(5-chlorothiophen-2-yl)methyl]-1-(2-methoxybenzoyl)-3-[1-(propane-2-sulfonyl)azetidin-3-yl]-1H-1,2,4-triazol-5-amine] | ≤ 100
COc1ccccc1C(=O)n1nc(C2CCN(C(=O)OC(C)(C)C)CC2)nc1NCc1ccccc1 [Entry 76, tert-butyl 4-[5-(benzylamino)-1-(2-methoxybenzoyl)-1H-1,2,4-triazol-3-yl]piperidine-1-carboxylate] | ≤ 100

Structure (SMILES) | IC50 [nM]
O=C(c1ccsc1)n1nc(C2CCOCC2)nc1NCc1ccc(Cl)s1 [Entry 57, N-[(5-chlorothiophen-2-yl)methyl]-3-(oxan-4-yl)-1-(thiophene-3-carbonyl)-1H-1,2,4-triazol-5-amine] | ≤ 100
O=C(C1CCCCC1)n1nc(C2CNC2)nc1NCc1ccc(Cl)s1 [Entry 22, 3-(azetidin-3-yl)-N-[(5-chlorothiophen-2-yl)methyl]-1-cyclohexanecarbonyl-1H-1,2,4-triazol-5-amine; trifluoroacetic acid] | 100 to 1000
Clc1ccc(CNc2nc(C3CCCO3)n[nH]2)s1 (stereo not shown) [Entry 60, N-[(5-chlorothiophen-2-yl)methyl]-3-(oxolan-2-yl)-1H-1,2,4-triazol-5-amine] | ≥ 100000
O=C(c1cccc2c1OCCO2)n1nc(C2CCOCC2)nc1NCc1ccc(Cl)s1 [Entry 32, N-[(5-chlorothiophen-2-yl)methyl]-1-(2,3-dihydro-1,4-benzodioxine-5-carbonyl)-3-(oxan-4-yl)-1H-1,2,4-triazol-5-amine] | ≤ 100
COc1ccccc1C(=O)n1nc(C2CCCCC2OC)nc1NCc1ccc(Cl)s1 (stereo not shown) [Entry 39, N-[(5-chlorothiophen-2-yl)methyl]-1-(2-methoxybenzoyl)-3-(2-methoxycyclohexyl)-1H-1,2,4-triazol-5-amine] | ≤ 100
CC(C)(C)OC(=O)N1CCC(c2n[nH]c(N)n2)CC1 [Entry 73, tert-butyl 4-(5-amino-1H-1,2,4-triazol-3-yl)piperidine-1-carboxylate] | ≥ 100000
COc1ccccc1C(=O)n1nc(C2CCOC2)nc1NCc1ccc(Cl)s1 (stereo not shown) [Entry 42, N-[(5-chlorothiophen-2-yl)methyl]-1-(2-methoxybenzoyl)-3-(oxolan-3-yl)-1H-1,2,4-triazol-5-amine] | ≤ 100
COc1ccccc1C(=O)n1nc(C2CN(S(=O)(=O)C3CCCCC3)C2)nc1NCc1ccc(Cl)s1 [Entry 63, N-[(5-chlorothiophen-2-yl)methyl]-3-[1-(cyclohexanesulfonyl)azetidin-3-yl]-1-(2-methoxybenzoyl)-1H-1,2,4-triazol-5-amine] | ≤ 100
COc1ccccc1C(=O)n1nc(C2CCN(C(=O)N(C)C)CC2)nc1NCc1ccc(Cl)s1 [Entry 30, 4-(5-[(5-chlorothiophen-2-yl)methyl]amino-1-(2-methoxybenzoyl)-1H-1,2,4-triazol-3-yl)-N,N-dimethylpiperidine-1-carboxamide] | ≤ 100
COc1ccccc1C(=O)n1nc(C2CCN(S(=O)(=O)C(C)C)CC2)nc1NCc1ccc(Cl)s1 [Entry 47, N-[(5-chlorothiophen-2-yl)methyl]-1-(2-methoxybenzoyl)-3-[1-(propane-2-sulfonyl)piperidin-4-yl]-1H-1,2,4-triazol-5-amine] | ≤ 100
COc1ccccc1C(=O)n1nc(C2CN(S(C)(=O)=O)C2)nc1NCc1ccc(Cl)s1 [Entry 54, N-[(5-chlorothiophen-2-yl)methyl]-3-(1-methanesulfonylazetidin-3-yl)-1-(2-methoxybenzoyl)-1H-1,2,4-triazol-5-amine] | ≤ 100
COc1ccc(C(=O)n2nc(C3CCCO3)nc2NCc2ccc(Cl)s2)c(OC)c1 (stereo not shown) [Entry 37, N-[(5-chlorothiophen-2-yl)methyl]-1-(2,4-dimethoxybenzoyl)-3-(oxolan-2-yl)-1H-1,2,4-triazol-5-amine] | ≤ 100
O=C(c1cccc2c1OCCO2)n1nc(C2CCOC2)nc1NCc1ccc(Cl)s1 (stereo not shown) [Entry 34, N-[(5-chlorothiophen-2-yl)methyl]-1-(2,3-dihydro-1,4-benzodioxine-5-carbonyl)-3-(oxolan-3-yl)-1H-1,2,4-triazol-5-amine] | ≤ 100
COc1ccccc1C(=O)n1nc(C2=C(O)CCCC2)nc1NCc1ccccc1 [Entry 16, 2-[5-(benzylamino)-1-(2-methoxybenzoyl)-1H-1,2,4-triazol-3-yl]cyclohex-1-en-1-ol] | ≥ 100000
COc1ccccc1C(=O)n1nc(C2CN(C(=O)OC(C)(C)C)C2)nc1NCc1ccc(Cl)s1 [Entry 71, tert-butyl 3-(5-[(5-chlorothiophen-2-yl)methyl]amino-1-(2-methoxybenzoyl)-1H-1,2,4-triazol-3-yl)azetidine-1-carboxylate] | ≤ 100
O=C(c1ccoc1)n1nc(C2CCCO2)nc1NCc1ccc(Cl)s1 (stereo not shown) [Entry 52, N-[(5-chlorothiophen-2-yl)methyl]-1-(furan-3-carbonyl)-3-(oxolan-2-yl)-1H-1,2,4-triazol-5-amine] | ≤ 100
Nc1nc(C2=C(OCc3ccc(Cl)s3)CCCC2)n[nH]1 [Entry 29, 3-2-[(5-chlorothiophen-2-yl)methoxy]cyclohex-1-en-1-yl-1H-1,2,4-triazol-5-amine] | ≥ 100000
